Values quoted from earlier work in US20250064759A1, “CONTAINER COMPRISING A LISDEX[…] SOLUTION” (LABOMED PHARMACEUTICAL COMPANY S.A., priority 2021, published 2025).

Conditions: in vivo

In the case of `C[C@@H](Cc1ccccc1)NC(=O)[C@@H](N)CCCCN` [Lisdexamfetamine, L-lysine-d-amfetamine], the “period over which dexamfetamine is delivered” value is given as “about 8 hours”.
